In PubChem BioAssay AID1963833 (Molecular Pharmacology Branch, DTP, NCI, 2024):

System: 883617-216-R-J1-PDC complex spheroid viability
Test: Anticancer human tumor 883617-216-R-J1-PDC patient-derived bladder carcinoma cell line growth inhibition [POLQ]
Conditions: for IC50: curve of first compound; for viability, T/C: stronger effect = lower value
Procedure, shortened: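 Patient-derived tumour cells were co-cultured with HUVEC and mesenchymal stem cells as multicellular spheroids at 37 °C. They were treated with POLQ inhibitors (novobiocin, ART-558, RP6685) alone or combined with other agents. Top concentrations were at or near clinical Cmax (otherwise 10 microM; SN-38 at 1 microM), decreasing in half-log steps.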

[1] = second compound 0.0316 µM, first compound 0.0316 µM
[2] = second compound 0.0316 µM, first compound 0.1 µM
[3] = second compound 0.0316 µM, first compound 0.316 µM
[4] = second compound 0.0316 µM, first compound 1 µM
[5] = second compound 0.0316 µM, first compound 3.16 µM
[6] = second compound 0.0316 µM, first compound 10 µM
[7] = second compound 0.1 µM, first compound 0.0316 µM
[8] = second compound 0.1 µM, first compound 0.1 µM
[9] = second compound 0.1 µM, first compound 0.316 µM
[10] = second compound 0.1 µM, first compound 1 µM
[11] = second compound 0.1 µM, first compound 3.16 µM
[12] = second compound 0.1 µM, first compound 10 µM
[13] = second compound 0.316 µM, first compound 0.0316 µM
[14] = second compound 0.316 µM, first compound 0.1 µM
[15] = second compound 0.316 µM, first compound 0.316 µM
[16] = second compound 0.316 µM, first compound 1 µM
[17] = second compound 0.316 µM, first compound 3.16 µM
[18] = second compound 0.316 µM, first compound 10 µM
[19] = second compound 1 µM, first compound 0.0316 µM
[20] = second compound 1 µM, first compound 0.1 µM
[21] = second compound 1 µM, first compound 0.316 µM
[22] = second compound 1 µM, first compound 1 µM
[23] = second compound 1 µM, first compound 3.16 µM
[24] = second compound 1 µM, first compound 10 µM
[25] = second compound 3.16 µM, first compound 0.0316 µM
[26] = second compound 3.16 µM, first compound 0.1 µM
[27] = second compound 3.16 µM, first compound 0.316 µM
[28] = second compound 3.16 µM, first compound 1 µM
[29] = second compound 3.16 µM, first compound 3.16 µM
[30] = second compound 3.16 µM, first compound 10 µM
[31] = second compound 10 µM, first compound 0.0316 µM
[32] = second compound 10 µM, first compound 0.1 µM
[33] = second compound 10 µM, first compound 0.316 µM
[34] = second compound 10 µM, first compound 1 µM
[35] = second compound 10 µM, first compound 3.16 µM
[36] = second compound 10 µM, first compound 10 µM
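Also: spheroids exposed to compounds for seven days before readout.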
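For viability, T/C in this document: 100% = DMSO vehicle control viability.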

With `COc1cc2cc(C(=O)CCC(=O)O)sc2cc1OC` + Cc1cccc(N(C)C(=O)C2C(O)CCN2c2nc(C)cc(C(F)(F)F)c2C#N)c1 the IC50 (second compound 0.0316 µM) was > 10 µM, the IC50 (second compound 0.1 µM) was > 10 µM and the IC50 (second compound 0.316 µM) was > 10 µM. For the same compound, the IC50 (second compound 1 µM) was > 10 µM, the IC50 (second compound 3.16 µM) was > 10 µM and the IC50 (second compound 10 µM) was > 10 µM. The viability, T/C [1] was 99.1%, the viability, T/C [2] was 101% and the viability, T/C [3] was 109%. The viability, T/C [4] was 106%, the viability, T/C [5] was 101% and the viability, T/C [6] was 115%. For the same compound, the viability, T/C [7] was 98.3%, the viability, T/C [8] was 107% and the viability, T/C [9] was 111%. It also gave a viability, T/C [10] of 87.8%, a viability, T/C [11] of 95.6% and a viability, T/C [12] of 102%. It also gave a viability, T/C [13] of 115%, a viability, T/C [14] of 114% and a viability, T/C [15] of 89.5%. For the same compound, the viability, T/C [16] was 100%, the viability, T/C [17] was 95.9% and the viability, T/C [18] was 102%. For the same compound, the viability, T/C [19] was 91.7%, the viability, T/C [20] was 98.5% and the viability, T/C [21] was 90.2%. It also gave a viability, T/C [22] of 118%, a viability, T/C [23] of 92.8% and a viability, T/C [24] of 102%. The viability, T/C [25] was 94.9%, the viability, T/C [26] was 115% and the viability, T/C [27] was 116%. It also gave a viability, T/C [28] of 112%, a viability, T/C [29] of 112% and a viability, T/C [30] of 106%. The viability, T/C [31] was 121%, the viability, T/C [32] was 108% and the viability, T/C [33] was 122%. The viability, T/C [34] was 116%, the viability, T/C [35] was 119% and the viability, T/C [36] was 117%.
For `COc1cccc2c1C(=O)c1c(O)c3c(c(O)c1C2=O)CC(O)(C(=O)CO)CC3OC1CC(N)C(O)C(C)O1` (stereo unspecified) + COC1C(OC(N)=O)C(O)C(Oc2ccc3c(O)c(NC(=O)c4ccc(O)c(CC=C(C)C)c4)c(=O)oc3c2C)OC1(C)C, the IC50 (second compound 0.0316 µM) was 0.186 µM, the IC50 (second compound 0.1 µM) was 0.32 µM and the IC50 (second compound 0.316 µM) was 0.251 µM. The IC50 (second compound 1 µM) was 0.214 µM, the IC50 (second compound 3.16 µM) was 0.308 µM and the IC50 (second compound 10 µM) was 0.151 µM. The viability, T/C [1] was 62.3%, the viability, T/C [2] was 49.8% and the viability, T/C [3] was 45.3%. The viability, T/C [4] was 4.36%, the viability, T/C [5] was 0.76% and the viability, T/C [6] was 0.26%. For the same compound, the viability, T/C [7] was 67.3%, the viability, T/C [8] was 59.6% and the viability, T/C [9] was 50.8%. The viability, T/C [10] was 6%, the viability, T/C [11] was 0.55% and the viability, T/C [12] was 0.43%. The viability, T/C [13] was 70.4%, the viability, T/C [14] was 58.2% and the viability, T/C [15] was 47.5%. For the same compound, the viability, T/C [16] was 6.74%, the viability, T/C [17] was 1.39% and the viability, T/C [18] was 1.91%. It also gave a viability, T/C [19] of 73.9%, a viability, T/C [20] of 55% and a viability, T/C [21] of 45%. The viability, T/C [22] was 3.27%, the viability, T/C [23] was 0.35% and the viability, T/C [24] was 1.2%. It also gave a viability, T/C [25] of 61.1%, a viability, T/C [26] of 48.6% and a viability, T/C [27] of 50%. The viability, T/C [28] was 4.18%, the viability, T/C [29] was 1.17% and the viability, T/C [30] was 0.37%. It also gave a viability, T/C [31] of 59.5%, a viability, T/C [32] of 50.9% and a viability, T/C [33] of 41.5%. For the same compound, the viability, T/C [34] was 5%, the viability, T/C [35] was 0.8% and the viability, T/C [36] was 0.3%.
For `COc1cc2cc(C(=O)CCC(=O)O)sc2cc1OC` + COC1C(OC(N)=O)C(O)C(Oc2ccc3c(O)c(NC(=O)c4ccc(O)c(CC=C(C)C)c4)c(=O)oc3c2C)OC1(C)C, the IC50 (second compound 0.0316 µM) was > 10 µM, the IC50 (second compound 0.1 µM) was > 10 µM and the IC50 (second compound 0.316 µM) was > 10 µM. The IC50 (second compound 1 µM) was > 10 µM, the IC50 (second compound 3.16 µM) was > 10 µM and the IC50 (second compound 10 µM) was > 10 µM. The viability, T/C [1] was 91.3%, the viability, T/C [2] was 89.1% and the viability, T/C [3] was 105%. For the same compound, the viability, T/C [4] was 83.3%, the viability, T/C [5] was 101% and the viability, T/C [6] was 90.9%. For the same compound, the viability, T/C [7] was 113%, the viability, T/C [8] was 102% and the viability, T/C [9] was 88.7%. For the same compound, the viability, T/C [10] was 93.8%, the viability, T/C [11] was 99.6% and the viability, T/C [12] was 102%. For the same compound, the viability, T/C [13] was 89.4%, the viability, T/C [14] was 83.6% and the viability, T/C [15] was 92.5%. For the same compound, the viability, T/C [16] was 93%, the viability, T/C [17] was 101% and the viability, T/C [18] was 89.2%. For the same compound, the viability, T/C [19] was 98.9%, the viability, T/C [20] was 96.6% and the viability, T/C [21] was 86.4%. For the same compound, the viability, T/C [22] was 100%, the viability, T/C [23] was 90.4% and the viability, T/C [24] was 98.2%. It also gave a viability, T/C [25] of 94%, a viability, T/C [26] of 94.1% and a viability, T/C [27] of 90.7%. It also gave a viability, T/C [28] of 101%, a viability, T/C [29] of 98.6% and a viability, T/C [30] of 92.4%. It also gave a viability, T/C [31] of 101%, a viability, T/C [32] of 98.5% and a viability, T/C [33] of 88.5%. The viability, T/C [34] was 93.9%, the viability, T/C [35] was 84.6% and the viability, T/C [36] was 101%.
